In this assay the test system is CEM cells HIV-1 protection, formazan growth assay. Nature of the assay: NCI AIDS Antiviral Assay. The settings on record: for IC50: measured here: growth of uninfected CEM cells. The method, boiled down:
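Category rules: moderately active means at least 50% protection on retest, and confirmed active means 100% protection reproducibly. The underlying data came from a formazan growth assay in HIV-1-infected CEM cells.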

Values joined by “and” are separate entries in the source; they are usually repeats but may differ in a detail not shown here. Equal values may be shown once. Active and inactive are the calls of the source.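 How the source made its calls: active means compounds giving half or more protection of infected cells from virus-caused growth loss, again on retest; inactive means the rest.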

Turning to `Cc1ccc(NC(=O)CC(=O)n2nc(-c3ccccc3)c(N=Nc3ccccc3C(=O)O)c2-c2ccccc2)cc1`, the EC50 was > 25.1 µM and the IC50 was > 25.1 µM.
Consider `O=C1NC(=O)/C(=C\c2cccc(Br)c2)N1`, for which the EC50 was > 200 µM and the IC50 came to 105 µM.
In the same order, the values of `O=C(O)c1ccc(Nc2cnc3ccc(C(F)(F)F)cc3n2)cc1` are > 200 µM and 11.2 µM.
With `O=C(O)CN(c1ccccc1)S(=O)(=O)c1ccc(Cl)cc1`, the outcome was inactive.
Consider `CC(=O)Nc1cc(S(=O)(=O)O)cc2c(N=Nc3ccc(C(=O)Nc4ccc(N=Nc5ccc(S(=O)(=O)O)cc5)cc4)cc3)c(S(=O)(=O)O)cc(O)c12`, for which the result was inactive.
For the compound `CCC(=O)NI1OC(=O)c2ccccc21`, the EC50 is > 200 µM and the IC50 is 81.3 µM.
Consider `Nc1c2ccccc2nc2nccnc12`, for which the EC50 was > 26.3 µM and the IC50 is > 26.3 µM.
As to `CCCC(=O)OC1C(C2COC(C)(C)O2)OC2OC(C)(C)OC21` (stereo not drawn), the result was inactive.
With `CCCCNC(=O)c1cc(NC(=O)c2ccc(C(=O)Nc3cc(C(=O)NCCCC)cc(C4N=CCN4)c3)cc2)cc(C2=NCCN2)c1` (stereo not drawn), the EC50 is 13.2 µM and the IC50 was > 100 µM.
The matching figures for `O=C(NNC(=O)c1ccccc1Cl)c1ccccc1Cl`: > 200 µM and > 200 µM.
The matching figures for `NCc1ccc(-c2ccc(-c3ccc(-c4ccc(CN)s4)s3)s2)s1`: > 100 µM and 72.4 µM.
The matching figures for `CCCCCCCCCCCCCCCCOCC(Cl)COP(=O)(O)OP(=O)(O)OCC1OC(n2cc(C)c(=O)[nH]c2=O)CC1O` (stereo not drawn): > 145 µM and 123 µM.
`c1ccc([C@H]2CN3CCSC3=N2)cc1`: the EC50 is > 200 µM and the IC50 is > 200 µM.
For the compound `O=S1(=O)OC(c2cc(Br)c(O)c(Br)c2)(c2cc(Br)c(O)c(Br)c2)c2c(Br)c(Br)c(Br)c(Br)c21`, the result was inactive.
Same read-out and setting: under `COC(=O)c1c(C(=O)OC)c(C(=O)OC)c(C(=O)OC)c1C(=O)OC` stands “inactive”; under `CCOP(=O)(OCC)/C(F)=C/c1ccc(F)cc1`, “inactive”.
As for `CCc1ccccc1NC(=O)C(=O)CC(=O)c1sc(Nc2ccccc2Cl)nc1C`, the EC50 was > 200 µM and the IC50 amounted to 87.1 µM.
In the same order, the values of `CC1=NN(c2ccc(S(=O)(=O)O)cc2)C(=O)C1N=Nc1ccc(-c2ccc(N=Nc3ccc(OS(=O)(=O)c4ccc(C)cc4)cc3)c(S(=O)(=O)O)c2)cc1` (stereo not drawn) are 100 µM and 151 µM.
With `CSC(=NC(=O)c1ccccc1)SCCSC(=NC(=O)c1ccccc1)SC`, the EC50 is > 2.34 µM and the half-inhibitory concentration (IC50) was > 2.34 µM.
As to `O=[N+]([O-])c1cccc([N+](=O)[O-])c1Cl`, the EC50 was > 200 µM and the IC50 turned out to be 16.6 µM.
The matching figures for `Cc1cc(Br)ccc1NC1=CC(=O)C(=O)c2ccccc21`: > 2.19 µM and > 2.19 µM.
The matching figures for `COc1ccc(-c2nnc(-c3ccncc3)o2)cc1`: > 200 µM and > 200 µM.
In the same order, the values of `CCc1c(C)c(SC)n(C)c(=O)c1C#N` are > 200 µM and 69.2 µM.
For `CC1=CC(c2ccccc2)OP1(=O)c1ccccc1` (stereo not drawn), the EC50 is > 200 µM and the half-maximal inhibitory concentration (IC50) was > 200 µM.
On to `O=C(CCN1CCCCC1)Nc1ccc2c(c1)C(=O)c1ccc(NC(=O)CCN3CCCCC3)cc1C2=O`, for which the EC50 is > 200 µM and the IC50 was found to be 1.86 µM.
In the same order, the values of `CC(C)OC(=O)c1cccnc1/C=N/O` are > 1200 µM and 112 µM.
The matching figures for `c1ccc([P+](Cc2ccc3c(c2)OCO3)(c2ccccc2)c2ccccc2)cc1`: > 200 µM and 3.39 µM.
As for `COc1ccc(/C=C2/N=C(N/N=C\C(O)C(O)C(O)C(O)CO)NC2=O)cc1` (stereo not drawn), the IC50 was 77.6 µM and 112 µM.
For the compound `O=C1C(c2cnc3ccccc3n2)=C(O)c2ccccc21`, the EC50 is > 2.63 µM and the half-inhibitory concentration (IC50) was > 2.63 µM.
As to `O=C(N/N=C1\CCc2ccccc2C1)N/N=C1\CCc2ccccc2C1`, the EC50 is > 200 µM and the IC50 stood at 51.3 µM.
As to `COc1cc(O)c2c(c1)C(=O)C=C(Cl)C2=O`, the outcome was inactive.
Consider `CC1(C)C=Cc2c(cc3oc4ccc5c(c4c(=O)c3c2O)C=CC(C)(C)O5)O1`, for which the EC50 is 36.3 µM and the IC50 stood at 50.1 µM.
`CCCCCCCCCCC#CCC(=O)SCCNC(=O)CCNC(=O)[C@@H](O)C(C)(C)COP(=O)(O)OP(=O)(O)OCC1OC(n2cnc3c(N)ncnc32)C(O)C1OP(=O)(O)O` (stereo partly drawn): the result was inactive.
As to `CC1=NNC(=O)C1C1CC(c2c[nH]c3ccccc23)=Nn2c(-c3ccccc3)nnc21` (stereo not drawn), the EC50 was > 100 µM and the IC50 came to 32.4 µM.
Regarding `CCCCCCCCCCC(O)CCCCCCC(=O)O` (stereo not drawn), the result was inactive.
Take `O=[N+]([O-])c1ccc(N2N=C(c3ccc4ccccc4c3O)CC2c2ccc(Cl)cc2Cl)c([N+](=O)[O-])c1` (stereo not drawn): the EC50 was > 200 µM and the IC50 was 42.7 µM.
In the same order, the values of `O=C(O)c1c(CC(Cc2ccc3c(c2)CCCC3)C(=O)O)ccc2c1CCCC2` (stereo not drawn) are > 200 µM and 141 µM.
In the same order, the values of `CCc1noc2ccccc12` are > 339 µM and > 339 µM.
The matching figures for `CCOC(=O)c1c(NC(=O)CCC(=O)Nc2sc(C)c(C)c2C(=O)OCC)sc(C)c1C`: > 100 µM and > 100 µM.
Take `O=C1CC(C(O)(C(F)(F)F)C(F)(F)Cl)CCC1C(O)(C(F)(F)F)C(F)(F)Cl` (stereo not drawn): the outcome was inactive.
With `O=C(Nc1ccc(Cl)cc1)Sc1nnc2c(n1)[nH]c1ccccc12`, the EC50 is 30.2 µM and the IC50 is > 200 µM.
The matching figures for `Cc1ccc(C2[C@H]3C(=O)N(c4ccc(Cc5ccc(N6C(=O)[C@@H]7ON(c8ccccc8)C(c8ccc(C)cc8)[C@@H]7C6=O)cc5)cc4)C(=O)[C@H]3ON2c2ccccc2)cc1` (stereo partly drawn): > 6.76 µM and > 6.76 µM.
In the same order, the values of `NCCCNc1ccc2c(c1)[n+]([O-])c1ccccc1[n+]2[O-]` are > 437 µM and 10.2 µM.
The matching figures for `CCC[CH2][Sn]([CH2]CCC)([O]C(=O)CN)[O]C(=O)CN`: > 33.9 µM and 2.45 µM.
Consider `Oc1ccc(-c2nc(-c3cccnc3)c(-c3ccc(Cl)cc3)[nH]2)cc1O`, for which the EC50 is > 200 µM and the IC50 was 13.8 µM.
The matching figures for `O=c1nc(Oc2c(F)c(F)c(F)c(F)c2F)ccn1C1OC(CO)C(O)C1O` (stereo not drawn): > 200 µM and 120 µM.
With `CCCCCCCCCCCCOC(=S)NC`, the result was inactive.
Turning to `NC(=O)C1=Cc2cccn2-c2ccccc2S1`, the EC50 is > 123 µM and the IC50 stood at 56.2 µM.
The matching figures for `CCOC(=O)C(=[N+]=[N-])C(=O)CN1C(=O)c2ccccc2C1=O`: > 437 µM and > 437 µM.
The matching figures for `Cc1cc(=O)[nH]c2cc(NC(=O)C(C)NC(=O)C(C)NC(=O)C(C)NC(=O)OC(C)(C)C)ccc12` (stereo not drawn): > 200 µM and > 200 µM.
The matching figures for `CCCCC1c2c([nH]c3ccccc23)C2C(=O)N(c3ccc(OC)cc3)C(=O)C2C1CCC` (stereo not drawn): > 200 µM and 3.55 µM.
As to `N/N=C(/CS(=O)(=O)c1ccc(Cl)cc1)c1ccccc1`, the EC50 is > 100 µM and the IC50 was > 100 µM.
Take `CS(=O)(=O)NOCCCCONS(C)(=O)=O`: the EC50 was > 912 µM and the IC50 was > 912 µM.
In the case of `COc1cc(N=Nc2c(S(=O)(=O)O)cc3cc(NC(=O)Nc4ccc5c(O)c(N=Nc6ccc7cc(S(=O)(=O)O)ccc7c6)c(S(=O)(=O)O)cc5c4)ccc3c2O)c(C)cc1N`, the outcome was active.
For the compound `CCC1(O)CC(CCN(Cc2ccccc2)C(=O)OCc2ccccc2)C(OCc2ccccc2)C1O` (stereo not drawn), the EC50 is > 200 µM and the IC50 came out at 9.12 µM.
In the case of `COc1nc(OC)n(C)c(=O)c1OP(=O)(OC)OC`, the EC50 was > 200 µM and the IC50 is > 200 µM.
With `NC(CCCCCP(=O)(O)O)C(=O)O` (stereo not drawn), the EC50 was > 200 µM and the IC50 was > 200 µM.
With `CCOC(=O)C1=C(O)C(=O)NC(C(=O)OCC)=C(c2ccccc2)C1`, the EC50 is > 50.1 µM and the IC50 was > 50.1 µM.
Regarding `CCOC(=O)CCC(NC(=O)N1CCN(c2c(C)nc(C)[nH]c2=O)CC1)C(=O)OCC` (stereo not drawn), the EC50 was > 200 µM and the IC50 is > 200 µM.
As for `COCN1C(=O)[C@@H]2CCCN2C(=O)c2ccc(Cl)cc21`, the EC50 was > 200 µM and the IC50 is > 200 µM.
In the case of `Cc1ccc(N2C3=C(CC4=C2CC(C)(C)CC4=O)C(=O)CC(C)(C)C3)cc1`, the EC50 is > 100 µM and the IC50 was > 100 µM.
For `CCN(CC)CC(=O)Nc1cc(Cl)ccc1C`, the EC50 is > 200 µM and the IC50 is > 200 µM.
On to `O=c1c2ccccc2nc(-c2ccc(Br)cc2)n1NC1OC(CO)C(O)C(O)C1O` (stereo not drawn), for which the outcome was inactive.
As to `N#Cc1cscc1C#N`, the EC50 is > 200 µM and the IC50 is > 200 µM.
Consider `Clc1ccc(CNCCCNCc2ccc(Cl)cc2Cl)c(Cl)c1`, for which the EC50 is > 200 µM and the IC50 came out at 22.4 µM.
The matching figures for `O=C(O)C1CC(c2ccc(F)cc2)=Nc2ccc(F)cc2S1` (stereo not drawn): > 200 µM and > 200 µM.
Turning to `O=C1C(=O)N(c2ccc(Cl)c(Cl)c2)C(=O)C(=O)C1c1nc2ccccc2s1`, the outcome was inactive.
On to `CC/C(=C(\C#N)c1ccc(F)cc1)c1ccc(OCCN(CC)CC)cc1`, for which the EC50 is > 200 µM and the IC50 is 2.51 µM.
In the same order, the values of `COC1CCC(OS(C)(=O)=O)C(C)O1` (stereo not drawn) are > 200 µM and 110 µM.
The matching figures for `COC(=O)c1cc(=O)n2c(sc3ccccc32)c1C(=O)c1ccccc1`: > 10 µM and > 10 µM.
The matching figures for `CCN(CC)C(=O)C/C(C)=N/NC(=O)c1ccncc1`: > 93.3 µM and > 93.3 µM.
For the compound `CC1CN=C(N(C(=O)Nc2ccc(F)c(Cl)c2)c2ccccc2)S1` (stereo not drawn), the outcome was inactive.

Usually EC50 stands for the concentration giving half of the maximal effect. The IC50 is the concentration that gives 50% inhibition. Low values mean greater potency, high ones weaker potency.

The record behind these values is PubChem BioAssay AID179 (DTP/NCI, 2004).
